Assay results from patent publication US9695155B2, “Herbicidal substituted pyrimidinyloxy benzene compounds” (E. I. DU PONT DE NEMOURS AND COMPANY, priority 2013, dated 2017).

Legend:
Assay in all cases: Test C preemergence
johnsongrass = format: in vivo, Sorghum halepense
Procedure, shortened: (§1)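 Visual ratings on a 0–100 scale (100 = complete control) were made versus untreated controls after 13–15 greenhouse days. Chemicals in a surfactant-containing non-phytotoxic solvent were applied either preemergence to seeds in loam–sand soil or postemergence to 1- to 4-leaf plants 2–18 cm tall.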

galium = format: in vivo, Galium aparine
Procedure, shortened: as §1

large (Lg) crabgrass = format: in vivo, Digitaria sanguinalis
Procedure, shortened: as §1

yellow nutsedge = format: in vivo, Cyperus esculentus
Procedure, shortened: as §1

barnyardgrass = format: in vivo, Echinochloa crus-galli
Procedure, shortened: as §1

lambsquarters = format: in vivo, Chenopodium album
Procedure, shortened: as §1

oilseed rape = format: in vivo, Brassica napus
Procedure, shortened: as §1

blackgrass = format: in vivo, Alopecurus myosuroides
Procedure, shortened: as §1

ragweed = format: in vivo, Ambrosia elatior
Procedure, shortened: as §1

giant foxtail = format: in vivo, Setaria faberii
Procedure, shortened: as §1

pigweed = format: in vivo, Amaranthus retroflexus
Procedure, shortened: as §1

corn = format: in vivo, Zea mays
Procedure, shortened: as §1

waterhemp = format: in vivo, Amaranthus rudis
Procedure, shortened: as §1

[1] = 16 g ai/ha, preemergence, scale 0 to 100 (0 no effect, 100 complete control)
[2] = 125 g ai/ha, preemergence, scale 0 (no effect) to 100 (complete control)
[3] = Preemergence, 62 g ai/ha, scale 0 to 100, 0 no effect, 100 complete control

N#Cc1cccc(Oc2ncc(Cl)cn2)c1-n1cc(OCC(F)(F)F)cn1 [Compound 274, 3-[(5-chloro-2-pyrimidinyl)oxy]-2-[4-(2,2,2-trifluoroethoxy)-1H-pyrazol-1-yl]benzonitrile]
pest or weed control at 16 g/ha (johnsongrass; Sorghum halepense, pre-emergence, 16 g ai/ha, preemergence, scale 0 to 100 (0 no effect, 100 complete control), read-out: Johnsongrass plant response rating): 10%
pest or weed control at 125 g/ha (johnsongrass; Sorghum halepense, pre-emergence, 125 g ai/ha, preemergence, scale 0 (no effect) to 100 (complete control), read-out: Johnsongrass plant response rating): 98%
pest or weed control at 62 g/ha (johnsongrass; Sorghum halepense, pre-emergence, Preemergence, 62 g ai/ha, scale 0 to 100, 0 no effect, 100 complete control, read-out: Plant response rating, Johnsongrass): 95%
pest or weed control at 16 g/ha (galium; Galium, pre-emergence, 16 g ai/ha, preemergence, scale 0 to 100 (0 no effect, 100 complete control), read-out: Galium plant response rating): 90%
pest or weed control at 125 g/ha (galium; Galium, pre-emergence, 125 g ai/ha, preemergence, scale 0 (no effect) to 100 (complete control), read-out: Galium plant response rating): 98%
pest or weed control at 62 g/ha (galium; Galium, pre-emergence, Preemergence, 62 g ai/ha, scale 0 to 100, 0 no effect, 100 complete control, read-out: Plant response rating, Galium): 98%
pest or weed control at 16 g/ha (large (Lg) crabgrass; Digitaria sanguinalis, pre-emergence, 16 g ai/ha, preemergence, scale 0 to 100 (0 no effect, 100 complete control), read-out: Crabgrass, Large plant response rating): 100%
pest or weed control at 125 g/ha (large (Lg) crabgrass; Digitaria sanguinalis, pre-emergence, 125 g ai/ha, preemergence, scale 0 (no effect) to 100 (complete control), read-out: Crabgrass, Large plant response rating): 100%
pest or weed control at 62 g/ha (large (Lg) crabgrass; Digitaria sanguinalis, pre-emergence, Preemergence, 62 g ai/ha, scale 0 to 100, 0 no effect, 100 complete control, read-out: Plant response rating, Crabgrass, Large): 100%
pest or weed control at 16 g/ha (yellow nutsedge; Cyperus, pre-emergence, 16 g ai/ha, preemergence, scale 0 to 100 (0 no effect, 100 complete control), read-out: Nutsedge, Yellow plant response rating): 20%
pest or weed control at 125 g/ha (yellow nutsedge; Cyperus, pre-emergence, 125 g ai/ha, preemergence, scale 0 (no effect) to 100 (complete control), read-out: Nutsedge, Yellow plant response rating): 95%
pest or weed control at 62 g/ha (yellow nutsedge; Cyperus, pre-emergence, Preemergence, 62 g ai/ha, scale 0 to 100, 0 no effect, 100 complete control, read-out: Plant response rating, Nutsedge, Yellow): 85%
pest or weed control at 16 g/ha (barnyardgrass; Echinochloa crus-galli, pre-emergence, 16 g ai/ha, preemergence, scale 0 to 100 (0 no effect, 100 complete control), read-out: Barnyardgrass plant response rating): 90%
pest or weed control at 125 g/ha (barnyardgrass; Echinochloa crus-galli, pre-emergence, 125 g ai/ha, preemergence, scale 0 (no effect) to 100 (complete control), read-out: Barnyardgrass plant response rating): 100%
pest or weed control at 62 g/ha (barnyardgrass; Echinochloa crus-galli, pre-emergence, Preemergence, 62 g ai/ha, scale 0 to 100, 0 no effect, 100 complete control, read-out: Plant response rating, Barnyardgrass): 100%
pest or weed control at 16 g/ha (lambsquarters; Chenopodium album, pre-emergence, 16 g ai/ha, preemergence, scale 0 to 100 (0 no effect, 100 complete control), read-out: Lambsquarters plant response rating): 100%
pest or weed control at 125 g/ha (lambsquarters; Chenopodium album, pre-emergence, 125 g ai/ha, preemergence, scale 0 (no effect) to 100 (complete control), read-out: Lambsquarters plant response rating): 98%
pest or weed control at 62 g/ha (lambsquarters; Chenopodium album, pre-emergence, Preemergence, 62 g ai/ha, scale 0 to 100, 0 no effect, 100 complete control, read-out: Plant response rating, Lambsquarters): 100%
plant injury at 16 g/ha (oilseed rape; Brassica napus, pre-emergence, 16 g ai/ha, preemergence, scale 0 to 100 (0 no effect, 100 complete control), read-out: Oilseed Rape plant response rating): 80%
plant injury at 125 g/ha (oilseed rape; Brassica napus, pre-emergence, 125 g ai/ha, preemergence, scale 0 (no effect) to 100 (complete control), read-out: Oilseed Rape plant response rating): 95%
plant injury at 62 g/ha (oilseed rape; Brassica napus, pre-emergence, Preemergence, 62 g ai/ha, scale 0 to 100, 0 no effect, 100 complete control, read-out: Plant response rating, Oilseed Rape): 95%
pest or weed control at 16 g/ha (blackgrass; Alopecurus myosuroides, pre-emergence, 16 g ai/ha, preemergence, scale 0 to 100 (0 no effect, 100 complete control), read-out: Blackgrass plant response rating): 50%
pest or weed control at 125 g/ha (blackgrass; Alopecurus myosuroides, pre-emergence, 125 g ai/ha, preemergence, scale 0 (no effect) to 100 (complete control), read-out: Blackgrass plant response rating): 90%
pest or weed control at 62 g/ha (blackgrass; Alopecurus myosuroides, pre-emergence, Preemergence, 62 g ai/ha, scale 0 to 100, 0 no effect, 100 complete control, read-out: Plant response rating, Blackgrass): 90%
pest or weed control at 16 g/ha (ragweed; Ambrosia artemisiifolia, pre-emergence, 16 g ai/ha, preemergence, scale 0 to 100 (0 no effect, 100 complete control), read-out: Ragweed plant response rating): 10%
pest or weed control at 125 g/ha (ragweed; Ambrosia artemisiifolia, pre-emergence, 125 g ai/ha, preemergence, scale 0 (no effect) to 100 (complete control), read-out: Ragweed plant response rating): 75%
pest or weed control at 62 g/ha (ragweed; Ambrosia artemisiifolia, pre-emergence, Preemergence, 62 g ai/ha, scale 0 to 100, 0 no effect, 100 complete control, read-out: Plant response rating, Ragweed): 35%
pest or weed control at 16 g/ha (giant foxtail; Setaria faberi, pre-emergence, 16 g ai/ha, preemergence, scale 0 to 100 (0 no effect, 100 complete control), read-out: Foxtail, Giant plant response rating): 98%
pest or weed control at 125 g/ha (giant foxtail; Setaria faberi, pre-emergence, 125 g ai/ha, preemergence, scale 0 (no effect) to 100 (complete control), read-out: Foxtail, Giant plant response rating): 100%
pest or weed control at 62 g/ha (giant foxtail; Setaria faberi, pre-emergence, Preemergence, 62 g ai/ha, scale 0 to 100, 0 no effect, 100 complete control, read-out: Plant response rating, Foxtail, Giant): 100%
pest or weed control at 16 g/ha (pigweed; Amaranthus retroflexus, pre-emergence, 16 g ai/ha, preemergence, scale 0 to 100 (0 no effect, 100 complete control), read-out: Pigweed plant response rating): 100%
pest or weed control at 125 g/ha (pigweed; Amaranthus retroflexus, pre-emergence, 125 g ai/ha, preemergence, scale 0 (no effect) to 100 (complete control), read-out: Pigweed plant response rating): 100%
pest or weed control at 62 g/ha (pigweed; Amaranthus retroflexus, pre-emergence, Preemergence, 62 g ai/ha, scale 0 to 100, 0 no effect, 100 complete control, read-out: Plant response rating, Pigweed): 100%
plant injury at 16 g/ha (corn; Zea mays, pre-emergence, 16 g ai/ha, preemergence, scale 0 to 100 (0 no effect, 100 complete control), read-out: Corn plant response rating): 5%
plant injury at 125 g/ha (corn; Zea mays, pre-emergence, 125 g ai/ha, preemergence, scale 0 (no effect) to 100 (complete control), read-out: Corn plant response rating): 80%
Corn plant response rating (crop injury, 0 = no effect, 100 = complete kill) at 62 g/ha (corn; Zea mays, pre-emergence, Preemergence, 62 g ai/ha, scale 0 to 100, 0 no effect, 100 complete control): 85%
pest or weed control at 16 g/ha (waterhemp; Amaranthus tuberculatus, pre-emergence, 16 g ai/ha, preemergence, scale 0 to 100 (0 no effect, 100 complete control), read-out: Waterhemp plant response rating): 100%
pest or weed control at 125 g/ha (waterhemp; Amaranthus tuberculatus, pre-emergence, 125 g ai/ha, preemergence, scale 0 (no effect) to 100 (complete control), read-out: Waterhemp plant response rating): 100%
pest or weed control at 62 g/ha (waterhemp; Amaranthus tuberculatus, pre-emergence, Preemergence, 62 g ai/ha, scale 0 to 100, 0 no effect, 100 complete control, read-out: Plant response rating, Waterhemp): 100%

Cc1cnc(Oc2cccc(C#N)c2-n2cc(C(F)(F)F)cn2)nc1 [Compound 180]
Johnsongrass plant response rating (johnsongrass; [1]): 0
Johnsongrass plant response rating (johnsongrass; [2]): 98
Plant response rating, Johnsongrass (johnsongrass; [3]): 75
Galium plant response rating (galium; [1]): 80
Galium plant response rating (galium; [2]): 100
Plant response rating, Galium (galium; [3]): 100
Crabgrass, Large plant response rating (large (Lg) crabgrass; [1]): 100
Crabgrass, Large plant response rating (large (Lg) crabgrass; [2]): 100
Plant response rating, Crabgrass, Large (large (Lg) crabgrass; [3]): 100
Nutsedge, Yellow plant response rating (yellow nutsedge; [1]): 5
Nutsedge, Yellow plant response rating (yellow nutsedge; [2]): 85
Plant response rating, Nutsedge, Yellow (yellow nutsedge; [3]): 65
Barnyardgrass plant response rating (barnyardgrass; [1]): 60
Barnyardgrass plant response rating (barnyardgrass; [2]): 100
Plant response rating, Barnyardgrass (barnyardgrass; [3]): 100
Lambsquarters plant response rating (lambsquarters; [1]): 85
Lambsquarters plant response rating (lambsquarters; [2]): 100
Plant response rating, Lambsquarters (lambsquarters; [3]): 100
Oilseed Rape plant response rating (oilseed rape; [1]): 55
Oilseed Rape plant response rating (oilseed rape; [2]): 100
Plant response rating, Oilseed Rape (oilseed rape; [3]): 100
Blackgrass plant response rating (blackgrass; [1]): 20
Blackgrass plant response rating (blackgrass; [2]): 90
Plant response rating, Blackgrass (blackgrass; [3]): 90
Ragweed plant response rating (ragweed; [1]): 20
Ragweed plant response rating (ragweed; [2]): 98
Plant response rating, Ragweed (ragweed; [3]): 80
Foxtail, Giant plant response rating (giant foxtail; [1]): 90
Foxtail, Giant plant response rating (giant foxtail; [2]): 100
Plant response rating, Foxtail, Giant (giant foxtail; [3]): 100
Pigweed plant response rating (pigweed; [1]): 85
Pigweed plant response rating (pigweed; [2]): 100
Plant response rating, Pigweed (pigweed; [3]): 100
Corn plant response rating (corn; [1]): 5
Corn plant response rating (corn; [2]): 65
Plant response rating, Corn (corn; [3]): 30
Waterhemp plant response rating (waterhemp; [1]): 90
Waterhemp plant response rating (waterhemp; [2]): 100
Plant response rating, Waterhemp (waterhemp; [3]): 100
